The values below come from the Kinase Knowledgebase extract (Sharma et al. 2016).

The target of test [1] is PIK3CA (human) (UniProt P42336). The test can be described thus: Enzyme Assay.
Test [2] shares this target. The test can be described thus: Assessment of Cell Proliferation in MDA-MB-361.1 Cells. The settings on record: mda-mb-361.
Test [3] has the same target. The test can be described thus: Assessment of Cell Proliferation in PC3 Cells. The conditions noted are these: pc-3.

PIK3CA (human), sequence (P42336 whole entry, looked up): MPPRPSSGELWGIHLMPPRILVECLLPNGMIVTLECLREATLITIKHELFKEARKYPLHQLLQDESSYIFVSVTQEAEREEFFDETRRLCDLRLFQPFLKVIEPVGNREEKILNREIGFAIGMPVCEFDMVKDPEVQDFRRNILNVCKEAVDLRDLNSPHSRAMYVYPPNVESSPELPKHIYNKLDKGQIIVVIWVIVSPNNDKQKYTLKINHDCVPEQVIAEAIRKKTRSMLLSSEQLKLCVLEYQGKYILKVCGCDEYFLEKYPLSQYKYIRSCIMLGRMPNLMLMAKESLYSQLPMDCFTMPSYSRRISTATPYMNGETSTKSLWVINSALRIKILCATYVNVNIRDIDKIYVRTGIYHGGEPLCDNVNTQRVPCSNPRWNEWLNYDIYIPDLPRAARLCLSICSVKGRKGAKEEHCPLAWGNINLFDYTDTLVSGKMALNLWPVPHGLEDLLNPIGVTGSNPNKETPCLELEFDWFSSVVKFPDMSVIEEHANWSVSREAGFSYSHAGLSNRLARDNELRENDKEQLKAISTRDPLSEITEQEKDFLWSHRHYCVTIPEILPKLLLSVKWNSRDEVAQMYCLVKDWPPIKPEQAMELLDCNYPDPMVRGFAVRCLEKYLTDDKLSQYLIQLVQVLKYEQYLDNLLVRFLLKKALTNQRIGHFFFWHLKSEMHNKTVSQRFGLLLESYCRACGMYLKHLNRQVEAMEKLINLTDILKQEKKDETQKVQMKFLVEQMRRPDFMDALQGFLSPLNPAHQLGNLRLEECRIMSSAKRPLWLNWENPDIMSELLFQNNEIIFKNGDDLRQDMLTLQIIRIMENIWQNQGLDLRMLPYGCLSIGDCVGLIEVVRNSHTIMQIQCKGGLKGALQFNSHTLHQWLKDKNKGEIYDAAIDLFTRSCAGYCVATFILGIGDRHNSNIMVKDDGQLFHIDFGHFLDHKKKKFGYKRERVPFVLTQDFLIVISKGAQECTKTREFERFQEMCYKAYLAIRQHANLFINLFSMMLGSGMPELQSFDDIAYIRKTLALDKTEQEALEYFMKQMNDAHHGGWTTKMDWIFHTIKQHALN

As a reminder, the IC50 is the concentration that gives 50% inhibition. A higher IC50 goes with weaker potency. For `Nc1ncc(-c2nc(N3CCOCC3)c3nc4n(c3n2)CCCO4)cn1`, the IC50 at PIK3CA (human) [1] came out at 0.00684 µM.

Usually EC50 stands for the concentration at which the effect is half-maximal. A high value points to lower potency in that assay. With `CC(C)NC(=O)Nc1ccc(-c2nc(N3CCOCC3)c3nc4n(c3n2)CCOC4(C)C)cc1`, the IC50 at PIK3CA (human) [1] amounted to 0.337 µM. For the same molecule, the EC50 at PIK3CA (human) [2] was 1.2 µM; on PIK3CA (human) [3] it was 1.3 µM.

`CC1(C)OCCn2c1nc1c(N3CCOCC3)nc(-c3cnc4[nH]ccc4c3)nc12` yielded an IC50 on PIK3CA (human) [1] of 0.014 µM.

The molecule `CC1(C)OCCn2c1nc1c(N3CCOCC3)nc(-c3ccc(N)nc3)nc12` returned an IC50 against PIK3CA (human) [1] of 0.0186 µM.

At PIK3CA (human) [1], `CN1CCn2c(nc3c(N4CCOCC4)nc(-c4cnc(N)nc4)nc32)C1=O` had an IC50 of 0.0215 µM.

Consider `CC1(C)OCCn2c1nc1c(N3CCOCC3)nc(-c3ccc(N)cn3)nc12`, for which the EC50 on PIK3CA (human) [2] and at PIK3CA (human) [3] was 10 µM each time.

`CC1(C)OCCn2c1cc1c(N3CCOCC3)nc(-c3cnc(N)nc3)nc12` registered an IC50 on PIK3CA (human) [1] of 0.000831 µM. Further, the EC50 on PIK3CA (human) [2] was found to be 0.094 µM; on PIK3CA (human) [3], 0.185 µM.

On PIK3CA (human) [1], `CC1(C)OCCn2c1nc1c(N3C[C@@H]4C[C@H]3CO4)nc(-c3cnc(N)nc3)nc12` returned an IC50 of 0.394 µM. In addition, the EC50 turned out to be 3.4 µM on PIK3CA (human) [2] and 3.6 µM on PIK3CA (human) [3].

The molecule `CC1=COC(C)(C)c2nc3c(N4CCOCC4)nc(-c4cnc(N)nc4)nc3n21` displayed an IC50 on PIK3CA (human) [1] of 0.00473 µM.

In turn, `FC(F)(F)C1OCCn2c1nc1c(N3CCOCC3)nc(-c3cccc4[nH]ncc34)nc12` (centres undefined) yielded an IC50 against PIK3CA (human) [1] of 0.0452 µM. Further, the EC50 on PIK3CA (human) [2] came to 4.4 µM; on PIK3CA (human) [3] it was 6.9 µM.

On PIK3CA (human) [1], `C[C@@H]1CN(c2nc(-c3cnc(N)nc3)nc3c2nc2n3CCOC2(C)C)C[C@H](C)O1` came in with an IC50 of 0.014 µM. The figures for the EC50 on PIK3CA (human) [2] and on PIK3CA (human) [3] were 3.1 µM and 3.8 µM, respectively.

Regarding `Nc1ncc(-c2nc(N3CCOCC3)c3nc4n(c3n2)CCC4)cn1`, the IC50 against PIK3CA (human) [1] is 0.00826 µM.

On PIK3CA (human) [1], `CC1c2nc3c(N4CCOCC4)nc(-c4cnc(N)nc4)nc3n2CCN1C` (centres undefined) returned an IC50 of 0.00689 µM. Also, the values for the EC50 at PIK3CA (human) [2] and at PIK3CA (human) [3] were 0.889 µM and 1.9 µM, respectively.

As to `CN(C)c1cnc(-c2nc(N3CCOCC3)c3nc4n(c3n2)CCOC4(C)C)cn1`, the EC50 on PIK3CA (human) [2] and at PIK3CA (human) [3] was 10 µM in each case.

`CC1(C)OCCn2c1nc1c(N3CCOCC3)nc(-c3ccnc(N)c3)nc12` registered an IC50 on PIK3CA (human) [1] of 0.685 µM.

Molecule `Nc1ccc(-c2nc(N3CCOCC3)c3nc4n(c3n2)CCOC4C(F)(F)F)cn1` (centres undefined) had an IC50 against PIK3CA (human) [1] of 0.0452 µM. This IC50 is about 15-fold lower than that of the molecule before.

`CC1NC(=O)Cn2c1nc1c(N3CCOCC3)nc(-c3cnc(N)nc3)nc12` (centres undefined) returned an IC50 on PIK3CA (human) [1] of 0.00428 µM.

Take `CC1(C)OCCn2c1nc1c(N3CCOCC3)nc(-c3cn[nH]c3)nc12`: the IC50 on PIK3CA (human) [1] is 0.382 µM.

Molecule `Nc1ncc(-c2nc(N3CCOCC3)c3nc4n(c3n2)CCO[C@H]4C(F)(F)F)cn1` displayed an IC50 at PIK3CA (human) [1] of 0.00357 µM. Further, the figures for the EC50 at PIK3CA (human) [2] and on PIK3CA (human) [3] were 0.424 µM and 0.697 µM, respectively.

For `Nc1ncc(-c2nc(N3CCOCC3)c3nc4n(c3n2)CCOC42COC2)cn1`, the IC50 against PIK3CA (human) [1] amounted to 0.00245 µM.

At PIK3CA (human) [1], `CC1(C)OCCn2c1nc1c(N3CCOCC3)nc(-c3cccc(O)c3)nc12` showed an IC50 of 0.00458 µM.

For `CC[C@@]1(C)OCCn2c1nc1c(N3CCOCC3)nc(-c3cnc(N)nc3)nc12`, on PIK3CA (human) [1], the IC50 was 0.00596 µM. This IC50 and that of the molecule before are within 1.5-fold of each other.

With `Nc1ncc(-c2nc(N3CCOCC3)c3nc4n(c3n2)CCCC4)cn1`, at PIK3CA (human) [1], the IC50 amounted to 0.00388 µM.

On PIK3CA (human) [1], `CC1(C)CN(c2nc(-c3cnc(N)nc3)nc3c2nc2n3CCOC2(C)C)CCO1` had an IC50 of 0.201 µM. Also, the EC50 on PIK3CA (human) [2] worked out at 1.5 µM; on PIK3CA (human) [3], 1.4 µM.

In turn, `CC1(C)OCCn2c1nc1c(N3CCOCC3)nc(-c3cncc(C(N)=O)c3)nc12` yielded an IC50 against PIK3CA (human) [1] of 0.0352 µM.

At PIK3CA (human) [1], `CC1(C)OCCn2c1nc1c(N3CCOCC3)nc(-c3cccc4[nH]ncc34)nc12` returned an IC50 of 0.0198 µM.

With `CC(C)Cn1cc(-c2nc(N3CCOCC3)c3nc4n(c3n2)CCOC4(C)C)cn1`, the EC50 at PIK3CA (human) [2] and on PIK3CA (human) [3] was 10 µM in each case.

On PIK3CA (human) [1], `CC1(C)CCn2c(nc3c(N4CCOCC4)nc(-c4cnc(N)nc4)nc32)O1` yielded an IC50 of 0.00509 µM. Further, the EC50 on PIK3CA (human) [2] was determined as 0.958 µM; on PIK3CA (human) [3], 1.8 µM.

Molecule `Nc1ccc(-c2nc(N3CCOCC3)c3nc4n(c3n2)CCCC4)cn1` returned an IC50 on PIK3CA (human) [1] of 0.0507 µM.

At PIK3CA (human) [1], `CC1(C)OCCn2c1nc1c(N3CCOCC3)nc(-c3cnc(N)cc3C(F)(F)F)nc12` had an IC50 of 0.00389 µM.

In the case of `Nc1cc(C(F)(F)F)c(-c2nc(N3CCOCC3)c3nc4n(c3n2)CCOC4)cn1`, the IC50 against PIK3CA (human) [1] amounted to 0.0112 µM.

Regarding `Nc1ncc(-c2nc(N3CCOCC3)c3nc4n(c3n2)CCO[C@@H]4C(F)(F)F)cn1`, the IC50 at PIK3CA (human) [1] worked out at 0.00345 µM.

Regarding `CC[C@]1(C)OCCn2c1nc1c(N3CCOCC3)nc(-c3cnc(N)nc3)nc12`, the IC50 on PIK3CA (human) [1] came out at 0.00311 µM. This IC50 and that of the molecule before are within 1.5-fold of each other.

At PIK3CA (human) [1], `CC1(C)OCCc2c1sc1c(N3CCOCC3)nc(-c3cnc(N)nc3)nc21` registered an IC50 of 0.001 µM. Moreover, the values for the EC50 at PIK3CA (human) [2] and on PIK3CA (human) [3] were 0.237 µM and 0.215 µM, respectively.

Take `CNC(=O)Nc1ccc(-c2nc(N3CCOCC3)c3nc4n(c3n2)CCOC4(C)C)cc1`: the IC50 against PIK3CA (human) [1] is 0.00671 µM.

Consider `CCNC(=O)Nc1ccc(-c2nc(N3CCOCC3)c3nc4n(c3n2)CCOC4(C)C)cc1`, for which the IC50 against PIK3CA (human) [1] stood at 0.0417 µM.

In the case of `Nc1ncc(-c2nc(N3CCOCC3)c3nc4n(c3n2)CCC2(CC2)O4)cn1`, at PIK3CA (human) [1], the IC50 worked out at 0.00137 µM.

Molecule `CC1(C)OCCn2c1nc1c(N3CCOCC3)nc(-c3ccc(N)cc3)nc12` displayed an IC50 on PIK3CA (human) [1] of 0.541 µM.

At PIK3CA (human) [1], `Nc1ncc(-c2nc(N3CCOCC3)c3nc4n(c3n2)CCOC4)cn1` had an IC50 of 0.00432 µM.

In turn, `Nc1ncc(-c2nc(N3CCOCC3)c3c(n2)N2CCC[C@H]2CO3)cn1` gave an IC50 on PIK3CA (human) [1] of 0.0779 µM. Besides, the EC50 on PIK3CA (human) [2] turned out to be 3.2 µM; on PIK3CA (human) [3] it was 2 µM.

`CC(=O)Nc1ncc(-c2nc(N3CCOCC3)c3nc4n(c3n2)CCOC4(C)C)cn1` returned an IC50 against PIK3CA (human) [1] of 0.242 µM. This lies in the sub-micromolar range.

For `CC1(C)OCCn2c1nc1c(N3CCOCC3)nc(-c3ccccc3NS(C)(=O)=O)nc12`, the IC50 on PIK3CA (human) [1] was 0.638 µM. This IC50 lies about 2.6-fold higher than the previous one.

Molecule `Oc1cccc(-c2nc(N3CCOCC3)c3nc4n(c3n2)CCOC4C(F)(F)F)c1` (centres undefined) came in with an IC50 against PIK3CA (human) [1] of 0.0797 µM. The EC50 at PIK3CA (human) [2] was determined as 0.92 µM; on PIK3CA (human) [3] it was 1.1 µM.

For the molecule `CCNC(=O)Nc1ccc(-c2nc(N3CCOCC3)c3c(n2)C2(C)CCOC2N3C)cc1` (centres undefined), the IC50 on PIK3CA (human) [1] was 2.1 µM. Besides, the EC50 on PIK3CA (human) [2] was determined as 0.315 µM; at PIK3CA (human) [3] it was 0.208 µM.

In turn, `CC(=O)Nc1ccc(-c2nc(N3CCOCC3)c3nc4n(c3n2)CCOC4(C)C)cn1` came in with an IC50 against PIK3CA (human) [1] of 0.049 µM.
